Results: paper PMC9516332 (Frontiers in Oncology, 2022)
Read-outs that look alike come from different tables or passages of the source.

System: 134 cancer cell lines
Assay: Cell viability assay (ATPlite, 72 hours), IC50 on cancer cell line panel

## FC(F)(F)c1ccc(CNc2ccc(Cc3c[nH]c4ncc(Cl)cc34)cn2)cn1 [pexidartinib]
Homo sapiens, MOLT-4, read-out: IC50 in cell proliferation assay, MOLT-4 cell line
  IC50: > 31.6 µM
Homo sapiens, MV4-11, read-out: IC50 in cell proliferation assay, MV4-11 cell line (FLT3 ITD)
  IC50: 0.254 µM
Homo sapiens, MeWo, read-out: IC50 in cell proliferation assay, MeWo cell line
  IC50: > 31.6 µM
Homo sapiens, NCCIT, read-out: IC50 in cell proliferation assay, NCC-IT cell line
  IC50: > 31.6 µM
Homo sapiens, NCI-H82, read-out: IC50 in cell proliferation assay, cell line NCI-H82
  IC50: > 31.6 µM
Homo sapiens, NCI-H460, read-out: IC50 in cell proliferation assay, NCI-H460 cell line
  IC50: 3.33 µM
Homo sapiens, NCI-H661, read-out: IC50 in cell proliferation assay, NCI-H661 cell line
  IC50: > 31.6 µM
Homo sapiens, NCI-H716, read-out: IC50 in cell proliferation assay, cell line NCI-H716 (FGFR2-COL14A1)
  IC50: 17 µM
Homo sapiens, NCI-H1650, read-out: IC50 in cell proliferation assay, NCI-H1650 cell line (EGFR exon19del)
  IC50: > 31.6 µM
Homo sapiens, NCI-H1975, read-out: IC50 in cell proliferation assay, NCI-H1975 cell line (EGFR p.L858R + p.T790M)
  IC50: > 31.6 µM
Homo sapiens, NCI-H2228, read-out: IC50 in cell proliferation assay, NCI-H2228 cell line (EML4-ALK)
  IC50: > 31.6 µM
Homo sapiens, OVCAR-3, read-out: IC50 in cell proliferation assay, cell line OVCAR-3
  IC50: > 31.6 µM
Homo sapiens, PFSK-1, read-out: IC50 in cell proliferation assay, cell line PFSK-1
  IC50: > 31.6 µM
Homo sapiens, RL95-2, read-out: IC50 in cell proliferation assay, cell line RL95-2 (EGFR p.A289V)
  IC50: > 31.6 µM
Homo sapiens, RPMI-7951, read-out: IC50 in cell proliferation assay, cell line RPMI-7951 (BRAF p.V600E)
  IC50: 26.5 µM
Homo sapiens, RS4-11, read-out: IC50 in cell proliferation assay, cell line RS4;11
  IC50: > 31.6 µM
Homo sapiens, Rec1, read-out: IC50 in cell proliferation assay, cell line REC-1
  IC50: 16 µM
Homo sapiens, SHP77, read-out: IC50 in cell proliferation assay, cell line SHP-77
  IC50: > 31.6 µM
Homo sapiens, SK-BR-3, read-out: IC50 in cell proliferation assay, cell line SK-BR-3 (ERBB2 amplification)
  IC50: > 31.6 µM
Homo sapiens, SK-N-AS, read-out: IC50 in cell proliferation assay, cell line SK-N-AS
  IC50: > 31.6 µM
Homo sapiens, SK-N-FI, read-out: IC50 in cell proliferation assay, cell line SK-N-FI
  IC50: > 31.6 µM
Homo sapiens, SK-N-MC, read-out: IC50 in cell proliferation assay, cell line SK-N-MC
  IC50: > 31.6 µM
Homo sapiens, SK-N-SH, read-out: IC50 in cell proliferation assay, cell line SK-N-SH (ALK p.F1174L)
  IC50: > 31.6 µM
Homo sapiens, SNU-5, read-out: IC50 in cell proliferation assay, cell line SNU-5 (MET amplification)
  IC50: > 31.6 µM
Homo sapiens, SNU-16, read-out: IC50 in cell proliferation assay, cell line SNU-16 (FGFR2 amplification)
  IC50: 8.76 µM
Homo sapiens, SNU-C2B, read-out: IC50 in cell proliferation assay, cell line SNU-C2B (EGFR p.R165Q)
  IC50: > 31.6 µM
Homo sapiens, SU-DHL-1, read-out: IC50 in cell proliferation assay, cell line SU-DHL-1 (NPM1-ALK)
  IC50: > 31.6 µM
Homo sapiens, SU-DHL-6, read-out: IC50 in cell proliferation assay, cell line SU-DHL-6
  IC50: > 31.6 µM
Homo sapiens, SUP-T1, read-out: IC50 in cell proliferation assay, cell line SUP-T1
  IC50: > 31.6 µM
Homo sapiens, SW48, read-out: IC50 in cell proliferation assay, cell line SW48 (EGFR p.G719S)
  IC50: > 31.6 µM
Homo sapiens, SW480, read-out: IC50 in cell proliferation assay, cell line SW480
  IC50: > 31.6 µM
Homo sapiens, SW626, read-out: IC50 in cell proliferation assay, cell line SW626
  IC50: > 31.6 µM
Homo sapiens, SW780, read-out: IC50 in cell proliferation assay, cell line SW780 (FGFR3-BAIAP2L1)
  IC50: 5.07 µM
Homo sapiens, SW837, read-out: IC50 in cell proliferation assay, cell line SW837
  IC50: > 31.6 µM
Homo sapiens, SW872, read-out: IC50 in cell proliferation assay, cell line SW872 (BRAF p.V600E)
  IC50: > 31.6 µM
Homo sapiens, SW900, read-out: IC50 in cell proliferation assay, cell line SW900
  IC50: > 31.6 µM
Homo sapiens, SW948, read-out: IC50 in cell proliferation assay, cell line SW948
  IC50: 19.9 µM
Homo sapiens, SW982, read-out: IC50 in cell proliferation assay, cell line SW982 (BRAF p.V600E)
  IC50: > 31.6 µM
Homo sapiens, SW-620, read-out: IC50 in cell proliferation assay, cell line SW620
  IC50: > 31.6 µM
Homo sapiens, T98G, read-out: IC50 in cell proliferation assay, cell line T98G
  IC50: > 31.6 µM
Homo sapiens, TCC-SUP, read-out: IC50 in cell proliferation assay, cell line TCCSUP
  IC50: > 31.6 µM
Homo sapiens, THP-1, read-out: IC50 in cell proliferation assay, cell line THP-1
  IC50: > 31.6 µM
Homo sapiens, U2OS, read-out: IC50 in cell proliferation assay, cell line U2OS
  IC50: > 31.6 µM
Homo sapiens, U-87 MG, read-out: IC50 in cell proliferation assay, cell line U-87MG ATCC
  IC50: > 31.6 µM
Homo sapiens, U-118-MG, read-out: IC50 in cell proliferation assay, cell line U-118MG
  IC50: > 31.6 µM
Homo sapiens, UMUC3, read-out: IC50 in cell proliferation assay, cell line UM-UC-3
  IC50: > 31.6 µM
Hs766T, read-out: IC50 in cell proliferation assay, Hs 766T cell line
  IC50: > 31.6 µM
L-82, read-out: IC50 in cell proliferation assay, L-82 cell line (NPM1-ALK)
  IC50: > 31.6 µM
Rh30, read-out: IC50 in cell proliferation assay, cell line Rh30
  IC50: > 31.6 µM
read-out: IC50 in cell proliferation assay, 11-18 cell line (EGFR p.L858R)
  IC50: > 31.6 µM
read-out: IC50 in cell proliferation assay, Hs 852.T cell line
  IC50: > 31.6 µM
read-out: IC50 in cell proliferation assay, JAR cell line
  IC50: > 31.6 µM
read-out: IC50 in cell proliferation assay, cell line 5637
  IC50: 18.3 µM
read-out: IC50 in cell proliferation assay, cell line A-388
  IC50: > 31.6 µM
read-out: IC50 in cell proliferation assay, cell line DB
  IC50: > 31.6 µM
read-out: IC50 in cell proliferation assay, cell line DEL (NPM1-ALK)
  IC50: > 31.6 µM
read-out: IC50 in cell proliferation assay, cell line ES-2 (BRAF p.V600E)
  IC50: > 31.6 µM
read-out: IC50 in cell proliferation assay, cell line PA-1
  IC50: 17.3 µM
read-out: IC50 in cell proliferation assay, cell line PC-3
  IC50: > 31.6 µM
read-out: IC50 in cell proliferation assay, cell line RD
  IC50: > 31.6 µM
read-out: IC50 in cell proliferation assay, cell line RKO (BRAF p.V600E)
  IC50: > 31.6 µM
read-out: IC50 in cell proliferation assay, cell line RL
  IC50: > 31.6 µM
read-out: IC50 in cell proliferation assay, cell line RT-4 (FGFR3-TACC3)
  IC50: > 31.6 µM
read-out: IC50 in cell proliferation assay, cell line SR (NPM1-ALK)
  IC50: 27.3 µM
read-out: IC50 in cell proliferation assay, cell line T24
  IC50: > 31.6 µM
read-out: IC50 in cell proliferation assay, cell line TT (RET p.C634W)
  IC50: > 31.6 µM
read-out: IC50 in cell proliferation assay, cell line VA-ES-BJ
  IC50: > 31.6 µM
